Test [1] can be described thus: In vitro Inhibitory concentration against 3AO human ovarian carcinoma cell line; Tested by sulforhodamine B colorimetric assay. Format: functional.
The subject of the next test is A549. Put plainly: In vitro Inhibitory Concentration against A549 human lung carcinoma cell line; Tested by sulforhodamine B colorimetric assay. Format: functional, cell-based. On the technique in general: Sulforhodamine B stains cellular protein and so reports cell mass.
In a further test the test system is Bel-7402. Put plainly: In vitro Inhibitory concentration against BEL-7402 human hepatocarcinoma cell line; Tested by sulforhodamine B colorimetric assay. In kind it is functional, cell-based.
For another test, the system named is HL-60. Description: In vitro Inhibitory concentration against HL-60 human leukemia cell line; Tested by trypan blue exclusion test. In kind it is functional, cell-based.
Test [2] concerns Homo sapiens. Description: In vivo antitumor activity against LS-174T human colon carcinoma in mice at 6 (mg/kgper dose). Format: functional, organism-based.
The test system of test [3] is Homo sapiens. Put plainly: In vivo antitumor activity against LS-174T human colon carcinoma in mice at 9 (mg/kgper dose). Format: functional, organism-based.
The subject of test [4] is Homo sapiens. Description: Ratio of TRTV and CRTV at 9 (mg/kgper dose) in LS-174T human colon carcinoma implanted in mice; (TRTV=relative tumor volume of the treated group; CRTV=relative tumor volume of the control group). In kind it is functional, organism-based.
Test [5] relates to Homo sapiens. Put plainly: Ratio of TRTV and CRTV at 6 (mg/kgper dose) in LS-174T human colon carcinoma implanted in mice; (TRTV=relative tumor volume of the treated group; CRTV=relative tumor volume of the control group). In kind it is functional, organism-based.

The term IC50 denotes the concentration that gives 50% inhibition. Higher therefore signals lower potency. On to CARBOPLATIN, for which the IC50 in test [1] stood at 29100 nM; with A549, 42300 nM; with Bel-7402, 36100 nM; in the test on HL-60, 2860 nM.
CISPLATIN: the IC50 stood at 470 nM in test [1], 2230 nM in the test with A549, 770 nM in the test with Bel-7402 and 330 nM with HL-60.
By T/C is commonly meant the result in the treated group divided by that in the control group, in per cent. For OXALIPLATIN, the Inhibition tumor index in the test on Homo sapiens [2] worked out at 24%; in the test with Homo sapiens [3] it was 51%. For the same sequence, the T/C in the test with Homo sapiens [4] was 50.8%; in the test on Homo sapiens [5], 87.4%.

Source of the values: ChEMBL document CHEMBL1140257, “Potential new antitumor agents from an innovative combination of camphorato, a ramification of traditional Chinese medicine, with a platinum moiety” (Bioorg Med Chem Lett, 2005).
